Experimental findings from publication PMC9898036, “VIP152 is a selective CDK9 inhibitor with pre-clinical in vitro and in vivo efficacy in chronic lymphocytic leukemia” (Leukemia, 2022) are described below.

Usually inhibition stands for the relative decrease from the control value, in per cent.

Common to all, as to format: binding
Data set [1] concerns the target JAK1(JH1domain-catalytic) (Homo sapiens, UniProt P23458). The experiment in a line: KINOMEscan: JAK1(JH1domain-catalytic). To be noted: 1000 nM, read-out: Percent Control.
Another data set deals with GSK3α (Homo sapiens, UniProt P49840). The experiment in a line: KINOMEscan: GSK3α. The procedure: The structure and synthesis of VIP152 were recently described by Lücking et al.. (Fig. 1A); however, the selectivity of the molecule in cellular systems has yet to be explored. […] We also performed this experiment at 1000 nM, where CDK9 was inhibited at 99%. […] We found a strong concordance between our data and those of Lücking when comparing the most inhibited kinases. Potential off-target effects of VIP152 were next tested in vitro at a concentration of 10 µM for off-target activity against a broad range of receptors, transporters, ion channels, and enzymes (n = 138) using the Eurofins Diversity Panel.
GSK3α, sequence (P49840 whole entry): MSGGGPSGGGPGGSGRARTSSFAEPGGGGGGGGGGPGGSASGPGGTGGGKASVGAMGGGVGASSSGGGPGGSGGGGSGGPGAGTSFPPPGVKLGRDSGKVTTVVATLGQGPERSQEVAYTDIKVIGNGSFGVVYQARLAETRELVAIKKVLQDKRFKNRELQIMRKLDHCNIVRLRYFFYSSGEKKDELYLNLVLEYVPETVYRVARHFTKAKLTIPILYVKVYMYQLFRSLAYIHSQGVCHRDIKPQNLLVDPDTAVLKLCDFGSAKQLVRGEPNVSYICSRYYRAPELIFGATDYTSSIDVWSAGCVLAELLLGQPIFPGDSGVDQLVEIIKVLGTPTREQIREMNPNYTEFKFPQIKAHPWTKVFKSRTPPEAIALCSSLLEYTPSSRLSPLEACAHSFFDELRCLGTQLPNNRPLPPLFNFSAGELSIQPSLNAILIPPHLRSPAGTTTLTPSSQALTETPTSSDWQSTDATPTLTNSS
Kinomescan Kinase Profiling Assay
Kinomescan Assay was performed at DiscoverRX and described in Fabian, et al. 2005, Nat.
Biotechnol. In brief, kinases were produced and subsequently tagged with DNA for qPCR detection.
Streptavidin-coated magnetic beads were bound to biotinylated kinase ligands to serve as a solid support.
VIP152 was dissolved in DMSO and tested across a 10 serial threefold dilution set and compared to a test compound and a DMSO control. Kinases which were inhibited by VIP152 would not be bound to the solid-support resulting in decreased substrate for the qPCR reaction. Kinome map was produced via TreeSpot Analysis from DiscoverRX. […]
NanoBRETTM Target Engagement Assay Protocol […]
HEK293 cells were grown to 70-80% confluence appropriately prior to assay and subsequently trypsinized. Lipid:DNA complexes were prepared as follows. A 10µg/mL solution of DNA in Opti-MEM without serum consisting of the following ratios of carrier DNA and DNA encoding NanoLuc fusion were prepared.
9.0µg/mL of Transfection Carrier DNA, 1.0µg/mL of NanoLuc fusion vector DNA, and 1mL of Opti-MEM without phenol red. The solution was mixed thoroughly. Next, 30µL of FuGENE HD Transfection Reagent was added into each mL of DNA mixture to form the lipid:DNA complex and mixed by inversion 10 times followed by a 20 minute incubation at room temperature. […]

For the next data set, the target named is EGFR(E746-A750del) (Homo sapiens, UniProt P00533, DEL746-750). The data set is described as follows: KINOMEscan: EGFR(E746-A750del). To be noted: 1000 nM, read-out: Percent Control.
EGFR(E746-A750del), sequence (P00533 with tags, fused parts or gaps DEL746-750 limits assumed): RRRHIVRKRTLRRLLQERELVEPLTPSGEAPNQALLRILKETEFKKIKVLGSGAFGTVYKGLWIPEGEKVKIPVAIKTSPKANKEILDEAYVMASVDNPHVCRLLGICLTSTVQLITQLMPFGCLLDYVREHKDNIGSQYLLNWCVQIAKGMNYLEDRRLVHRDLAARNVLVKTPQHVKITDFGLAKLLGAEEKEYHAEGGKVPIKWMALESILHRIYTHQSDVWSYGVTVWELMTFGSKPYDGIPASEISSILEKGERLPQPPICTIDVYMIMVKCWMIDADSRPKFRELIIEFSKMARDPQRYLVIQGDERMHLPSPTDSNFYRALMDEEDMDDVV
In the next data set the target is ANKK1 (Homo sapiens, UniProt Q8NFD2). The experiment in a line: KINOMEscan: ANKK1. The settings on record: 1000 nM, read-out: Percent Control.
ANKK1, sequence (Q8NFD2 whole entry): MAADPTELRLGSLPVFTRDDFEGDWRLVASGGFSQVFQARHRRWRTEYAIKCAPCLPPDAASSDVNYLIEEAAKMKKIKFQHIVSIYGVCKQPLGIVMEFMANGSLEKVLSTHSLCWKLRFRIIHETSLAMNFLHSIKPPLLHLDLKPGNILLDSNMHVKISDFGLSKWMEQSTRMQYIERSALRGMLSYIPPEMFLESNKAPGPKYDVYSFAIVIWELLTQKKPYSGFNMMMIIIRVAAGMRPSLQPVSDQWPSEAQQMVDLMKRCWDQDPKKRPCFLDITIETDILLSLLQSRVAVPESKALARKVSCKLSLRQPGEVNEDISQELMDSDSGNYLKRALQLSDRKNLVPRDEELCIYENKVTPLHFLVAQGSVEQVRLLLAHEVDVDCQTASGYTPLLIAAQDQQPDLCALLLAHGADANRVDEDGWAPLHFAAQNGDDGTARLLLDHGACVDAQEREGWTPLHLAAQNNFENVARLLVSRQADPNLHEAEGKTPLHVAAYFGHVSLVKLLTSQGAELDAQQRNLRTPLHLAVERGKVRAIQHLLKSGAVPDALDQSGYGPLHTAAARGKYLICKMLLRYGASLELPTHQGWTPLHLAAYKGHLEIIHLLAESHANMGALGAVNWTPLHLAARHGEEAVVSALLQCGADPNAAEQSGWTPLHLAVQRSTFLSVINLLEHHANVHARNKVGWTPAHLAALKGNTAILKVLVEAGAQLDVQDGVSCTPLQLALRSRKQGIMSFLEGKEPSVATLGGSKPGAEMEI
The next data set deals with hERG potassium channel (Homo sapiens, UniProt Q12809). The experiment in a line: Eurofins Diversity Panel. The settings on record: hum, Conc. 10 μM.
The next data set deals with CDKL2 (Homo sapiens, UniProt Q92772). The data set is described as follows: KINOMEscan: CDKL2. To be noted: 1000 nM, read-out: Percent Control.
CDKL2, sequence (Q92772 whole entry): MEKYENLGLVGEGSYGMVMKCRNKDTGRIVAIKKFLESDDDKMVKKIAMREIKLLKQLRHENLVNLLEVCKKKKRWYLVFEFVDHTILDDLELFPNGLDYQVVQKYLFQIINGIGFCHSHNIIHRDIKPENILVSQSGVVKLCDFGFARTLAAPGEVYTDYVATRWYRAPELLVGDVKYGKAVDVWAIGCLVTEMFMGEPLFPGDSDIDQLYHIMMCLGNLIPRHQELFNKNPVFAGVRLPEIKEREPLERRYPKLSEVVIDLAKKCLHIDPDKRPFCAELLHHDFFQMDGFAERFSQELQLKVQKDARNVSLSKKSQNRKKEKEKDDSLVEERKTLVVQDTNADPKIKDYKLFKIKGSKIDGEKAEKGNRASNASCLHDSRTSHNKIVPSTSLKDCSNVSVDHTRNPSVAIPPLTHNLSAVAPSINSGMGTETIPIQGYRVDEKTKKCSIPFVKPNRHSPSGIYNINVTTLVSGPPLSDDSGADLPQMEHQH
Another data set concerns the target CAMK2B (Homo sapiens, UniProt Q13554). The data set is described as follows: KINOMEscan: CAMK2B. The settings on record: 1000 nM, read-out: Percent Control.
A further data set has as its target LATS1 (Homo sapiens, UniProt O95835). The experiment in a line: KINOMEscan: LATS1. To be noted: 1000 nM, read-out: Percent Control.
In the next data set the target is SgK110 (Homo sapiens, UniProt P0C264). The data set is described as follows: KINOMEscan: SgK110. To be noted: 100 nM, read-out: Percent Control.
SgK110, sequence (P0C264 whole entry): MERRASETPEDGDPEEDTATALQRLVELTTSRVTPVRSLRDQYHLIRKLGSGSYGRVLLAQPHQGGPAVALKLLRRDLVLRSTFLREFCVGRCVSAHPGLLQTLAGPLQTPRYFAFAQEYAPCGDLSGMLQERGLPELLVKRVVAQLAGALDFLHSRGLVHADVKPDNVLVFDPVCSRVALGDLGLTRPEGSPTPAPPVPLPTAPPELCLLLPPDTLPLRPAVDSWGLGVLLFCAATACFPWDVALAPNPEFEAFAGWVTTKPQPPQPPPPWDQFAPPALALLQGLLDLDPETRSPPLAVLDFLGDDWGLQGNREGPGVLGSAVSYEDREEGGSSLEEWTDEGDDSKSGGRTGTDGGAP
In data set [2] the target is Transporter, Serotonin (5-Hydroxytryptamine) (SERT) (Homo sapiens, UniProt P31645). The experiment in a line: Eurofins Diversity Panel. To be noted: hum, Conc. 10 μM.
Transporter, Serotonin (5-Hydroxytryptamine) (SERT), sequence (P31645 whole entry): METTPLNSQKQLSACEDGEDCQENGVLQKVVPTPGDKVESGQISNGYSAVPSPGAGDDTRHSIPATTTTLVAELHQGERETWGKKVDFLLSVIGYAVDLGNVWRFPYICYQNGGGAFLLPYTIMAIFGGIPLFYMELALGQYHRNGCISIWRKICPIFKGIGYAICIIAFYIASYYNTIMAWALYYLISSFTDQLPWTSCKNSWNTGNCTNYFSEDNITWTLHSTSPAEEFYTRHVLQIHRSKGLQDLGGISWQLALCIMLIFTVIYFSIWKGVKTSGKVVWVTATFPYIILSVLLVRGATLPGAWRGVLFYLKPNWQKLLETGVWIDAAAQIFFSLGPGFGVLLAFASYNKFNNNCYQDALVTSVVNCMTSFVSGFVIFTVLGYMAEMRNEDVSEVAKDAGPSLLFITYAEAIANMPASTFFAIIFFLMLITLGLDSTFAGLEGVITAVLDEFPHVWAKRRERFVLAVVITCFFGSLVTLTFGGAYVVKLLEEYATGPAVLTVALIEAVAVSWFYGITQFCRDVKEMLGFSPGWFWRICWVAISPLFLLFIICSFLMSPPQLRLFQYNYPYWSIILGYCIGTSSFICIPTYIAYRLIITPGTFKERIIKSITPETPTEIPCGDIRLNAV
Another data set concerns the target MLK2 (Homo sapiens, UniProt Q02779). The data set is described as follows: KINOMEscan: MLK2. The settings on record: 1000 nM, read-out: Percent Control.
The next data set concerns the target AXL (Homo sapiens, UniProt P30530). The experiment in a line: KINOMEscan: AXL. To be noted: 1000 nM, read-out: Percent Control.
Another data set deals with HASPIN (Homo sapiens, UniProt Q8TF76). The experiment in a line: KINOMEscan: HASPIN. The settings on record: 1000 nM, read-out: Percent Control.
HASPIN, sequence (Q8TF76 whole entry): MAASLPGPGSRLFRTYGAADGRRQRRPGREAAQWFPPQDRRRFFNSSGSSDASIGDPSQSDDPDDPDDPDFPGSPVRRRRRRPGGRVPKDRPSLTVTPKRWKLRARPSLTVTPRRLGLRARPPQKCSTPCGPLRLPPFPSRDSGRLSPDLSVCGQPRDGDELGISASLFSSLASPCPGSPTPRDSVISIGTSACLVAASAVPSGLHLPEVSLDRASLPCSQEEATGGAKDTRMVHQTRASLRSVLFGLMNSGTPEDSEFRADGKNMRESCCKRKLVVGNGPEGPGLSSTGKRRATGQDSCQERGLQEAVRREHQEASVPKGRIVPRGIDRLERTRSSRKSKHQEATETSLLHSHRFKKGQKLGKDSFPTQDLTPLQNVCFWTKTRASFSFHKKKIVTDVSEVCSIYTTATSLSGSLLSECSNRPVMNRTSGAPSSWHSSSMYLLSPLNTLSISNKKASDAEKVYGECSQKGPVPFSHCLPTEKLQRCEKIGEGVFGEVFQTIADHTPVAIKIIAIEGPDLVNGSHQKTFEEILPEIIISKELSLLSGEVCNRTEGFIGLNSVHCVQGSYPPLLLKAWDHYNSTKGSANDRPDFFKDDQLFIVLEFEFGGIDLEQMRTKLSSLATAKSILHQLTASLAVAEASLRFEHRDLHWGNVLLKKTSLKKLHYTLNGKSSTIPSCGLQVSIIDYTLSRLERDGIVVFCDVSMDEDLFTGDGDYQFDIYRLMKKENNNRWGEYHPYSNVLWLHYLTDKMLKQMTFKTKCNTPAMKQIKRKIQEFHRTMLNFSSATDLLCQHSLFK
The target in a further data set is RIPK2 (Homo sapiens, UniProt O43353). The experiment in a line: KINOMEscan: RIPK2. The settings on record: 100 nM, read-out: Percent Control.

AXL, sequence (P30530 26-894): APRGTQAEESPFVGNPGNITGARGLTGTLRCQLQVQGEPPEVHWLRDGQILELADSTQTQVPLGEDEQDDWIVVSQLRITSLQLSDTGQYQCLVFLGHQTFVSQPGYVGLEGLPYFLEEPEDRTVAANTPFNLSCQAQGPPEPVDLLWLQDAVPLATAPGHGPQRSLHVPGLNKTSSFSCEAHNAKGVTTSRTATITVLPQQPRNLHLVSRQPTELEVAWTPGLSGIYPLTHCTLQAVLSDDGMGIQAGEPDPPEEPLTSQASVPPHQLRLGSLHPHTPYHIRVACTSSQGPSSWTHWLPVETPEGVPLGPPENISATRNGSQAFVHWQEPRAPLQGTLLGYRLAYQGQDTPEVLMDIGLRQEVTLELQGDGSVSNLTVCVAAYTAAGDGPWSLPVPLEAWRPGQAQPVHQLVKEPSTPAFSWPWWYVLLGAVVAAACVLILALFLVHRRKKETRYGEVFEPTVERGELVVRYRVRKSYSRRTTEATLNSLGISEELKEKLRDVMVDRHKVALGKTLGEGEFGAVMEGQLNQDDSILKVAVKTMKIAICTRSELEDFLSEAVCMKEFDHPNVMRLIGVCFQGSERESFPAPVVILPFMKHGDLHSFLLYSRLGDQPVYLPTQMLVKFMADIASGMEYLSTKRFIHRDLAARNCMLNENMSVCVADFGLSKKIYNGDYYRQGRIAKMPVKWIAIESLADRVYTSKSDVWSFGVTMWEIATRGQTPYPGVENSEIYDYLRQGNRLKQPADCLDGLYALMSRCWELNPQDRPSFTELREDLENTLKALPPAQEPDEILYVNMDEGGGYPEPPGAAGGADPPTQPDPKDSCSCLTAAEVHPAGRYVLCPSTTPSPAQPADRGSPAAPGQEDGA
JAK1(JH1domain-catalytic), sequence (P23458 875-1154 limits assumed): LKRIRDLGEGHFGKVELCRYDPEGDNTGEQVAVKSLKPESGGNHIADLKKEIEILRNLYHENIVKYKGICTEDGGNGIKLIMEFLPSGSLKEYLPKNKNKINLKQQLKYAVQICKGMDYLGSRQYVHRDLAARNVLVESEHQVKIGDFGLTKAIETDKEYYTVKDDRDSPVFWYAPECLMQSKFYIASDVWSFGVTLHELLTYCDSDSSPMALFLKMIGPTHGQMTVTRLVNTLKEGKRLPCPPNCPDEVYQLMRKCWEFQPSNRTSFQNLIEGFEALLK

As to `COc1cc(F)ccc1-c1cc(Nc2cc(CS(C)(=N)=O)ccn2)ncc1F` (stereo not shown) [VIP152], the remaining binding at 1 µM in data set [1] stood at 96%; on GSK3α (GSK3A, 1000 nM, read-out: Percent Control) it was 4.5%; on EGFR(E746-A750del), 76%; at ANKK1, 83%; at CDKL2, 18%; on CAMK2B, 65%. Further, the remaining binding at 1 µM was determined as 62% on LATS1, 100% at MLK2, 50% at AXL and 99% at HASPIN. Moreover, the inhibition at 0.1 µM at GSK3α (100 nM, read-out: inhibition of GSK3α relative to control) was 97.1%. Further, the remaining binding at 0.1 µM at GSK3α (GSK3A, 100 nM, read-out: Percent Control) was found to be 2.9%; at SgK110, 100%; at RIPK2 it was 100%. Moreover, the results for the inhibition at 10 µM (against hERG potassium channel; in [2]) were 26% and -3%, respectively.
